Source: US10227295B2, “Selective histone deactylase 6 inhibitors” (H. LEE MOFFITT CANCER CENTER AND RESEARCH INSTITUTE, INC., priority 2013, dated 2019)

Assays:
[1] = target: human, recombinant full-length HDAC6 (Homo sapiens (Human), UniProt Q9UBN7); assay: HDAC inhibition assay (Reaction Biology), HDAC6; type: biochemical
[2] = test system: B16 murine melanoma cells; assay: B16 melanoma cell growth inhibition MTS assay; type: cell-based; conditions: for GI50: Mus musculus, B16 murine melanoma cells; for GI50 / growth inhibition of B16 melanoma cells (in words): 48 h, MTS
Protocol: B16 murine melanoma cells were plated at 5×10^3/well in 96 well flat bottom plates. The following day, media was changed to that containing various concentrations of HDACi or matched DMSO vehicle concentrations diluted in complete medium done in triplicate. Cells were incubated for 48 hours at 37° C. and 5% CO2. […] Briefly, 20 μL of reagent were added per well and incubated at 37° C. for 3 hours. […] All values were then normalized and expressed as a percentage of medium control (100%).

[3] = test system: melanoma antigens gp100, MART1, TYRP1 and TYRP2 in human melanoma cell lines; assay: Tumor antigen expression by qRT-PCR; type: cell-based; conditions: 48 hours
Protocol: (D) Expression of tumor antigens was measured in human WM164 non-target and HDAC6KD cells. (E) Expression of tumor antigens mart-1 and gp-100 was measured by western blot.
In addition to direct cytotoxicity, pan-HDACi have immunologic effects on melanoma including modulation of MHC, co-stimulatory molecules, and cytokine production. In both human and murine melanoma cell lines, genetic (FIG. 43A) and pharmacologic (FIG. 43B) disruption of HDAC6 led to increased surface expression of MHC I by flow cytometry.

[4] = test system: B16 melanoma; assay: In vivo B16 melanoma tumor growth in C57BL/6 mice; conditions: 25 mg/kg, intraperitoneal, three times weekly, B16 subcutaneous
[5] = test system: acetyl-α-tubulin and acetyl-H3 in B16 melanoma cells; assay: Tubulin and histone acetylation Western blot assay; type: cell-based, murine; conditions: low nanomolar treatment, 24 h
Protocol: […]. B16 melanoma cells were plated at 10^5 cells/well in 12 well plates and allowed to adhere overnight. A 50 mM stock of compound was then added by serial dilutions in complete medium to the indicated concentrations. Cells were incubated for 24 h under humidified conditions (37° C., 5% CO2). Wells were then washed with cold PBS, and cells were lysed in a buffer containing 10 mM Tris-HCl pH 8.0, 10% SDS, […], 100 mM DTT, and 1× protease inhibitor (Roche). Cells were lysed for 30 min on ice and then sonicated for 8 min (8 cycles of 30 s on/30 s rest). Cells were then boiled for 10 min with 6× gel loading buffer and resolved on 4-15% gradient gels and subsequently transferred onto nitrocellulose membranes. Membranes were blocked with 5% milk in PBS-T and detection of specific antigens using antibodies against acetyl-H3 and H3 (Cell Signaling), and acetyl-α-tubulin and α-tubulin (Sigma). Bands were detected by scanning blots with LI-COR Odyssey imaging system using both 700 and 800 channels.

[6] = test system: acetyl-tubulin and acetyl-histone3 in human melanoma cell lines; assay: Western blot of HDAC substrate acetylation in human melanoma cells; type: cell-based; conditions: 24 hrs
Protocol: Error bars represent standard deviation from triplicates. This figure is representative of three independent experiments. (F,G,H) Cell cycle analysis of melanoma WM164, WM983A and WM793 human melanoma cell lines stained with propidium iodide. Data is representative of three experiments with similar results.
To confirm the selectivity of isotype specific HDACi, Western blot analysis was performed on the acetylation status of known HDAC substrates including histone H3 and H4, which are known Class I HDAC targets, and α-tubulin, a target for HDAC6. The doses required to impart the anti-proliferative effect coincided with that needed to increase acetylation of the respective HDAC substrates (FIG. 41F-41H). […] Conversely, HDAC6 selective inhibitors (HDAC6i) increase α-tubulin acetylation but not histone acetylation (FIG. 41F).

[7] = test system: murine mantle cell lymphoma (MCL); assay: Cell viability CellTiter 96 Aqueous ONE, MCL; type: cell-based; conditions: 24 hrs, compared to DMSO
Protocol: (§1) Human cutaneous T-cell lymphoma (CTCL) HuT-78 (A), murine mantle cell lymphoma (MCL) (B), and murine melanoma B16 (C) and SM1 (D) cells were incubated with JB7-19, JB7-22, JB720 at different concentrations for 24 hrs. Cell viability was measured using CellTiter 96 Aqueous ONE solution (Promega, Madison, Wis.) and compared to DMSO treated control samples. Error bars represent standard deviation from triplicates.

[8] = test system: IL-10 production in murine peritoneal elicited primary macrophages (PEM); assay: IL-10 production ELISA, PEM; type: cell-based; conditions: 24 hrs
Protocol: (§2) Murine peritoneal elicited primary macrophages (PEM)(A) and murine RAW264.7 (B) cells were incubated with JB7-19, JB7-22, JB720 at the concentration indicated on each chart. After 24 hrs, the production of IL-10 was measured by ELISA.

[9] = test system: IL-10 production in murine RAW264.7 cells; assay: IL-10 production ELISA, RAW264.7; type: cell-based; conditions: RAW264.7, 24 hrs
Protocol: as §2

[10] = test system: Human cutaneous T-cell lymphoma (CTCL) HuT-78; assay: Cell viability CellTiter 96 Aqueous ONE, HuT-78; type: cell-based; conditions: HuT-78, 24 hrs, compared to DMSO
Protocol: as §1

[11] = test system: murine melanoma SM1; assay: Cell viability CellTiter 96 Aqueous ONE, SM1; type: cell-based; conditions: SM1, 24 hrs, compared to DMSO
Protocol: as §1

[12] = test system: murine melanoma B16; assay: Cell viability CellTiter 96 Aqueous ONE, B16; type: cell-based; conditions: B16, 24 hrs, compared to DMSO
Protocol: as §1

[13] = test system: NRAS and BRAF mutant human melanoma cell lines; assay: Human melanoma cell proliferation MTS assay; type: cell-based; conditions: 24 h, panel of human melanoma cell lines
Protocol: Cell proliferation was evaluated using various pan- and isotype selective HDACi in a broad panel of human melanoma cell lines. Briefly, cells were plated at 10×10^3/well in a 96 well flat bottom plate. The following day, media was changed to that containing different concentrations of HDACi or matched DMSO vehicle concentrations diluted in complete medium done in triplicate, all with a final concentration of less than 0.1% DMSO. Cells were incubated for 24 hours at 37° C. and 5% CO2. […] All values were then normalized and expressed as a percentage of medium control growth.

Sequence of human, recombinant full-length HDAC6 (Q9UBN7 whole entry): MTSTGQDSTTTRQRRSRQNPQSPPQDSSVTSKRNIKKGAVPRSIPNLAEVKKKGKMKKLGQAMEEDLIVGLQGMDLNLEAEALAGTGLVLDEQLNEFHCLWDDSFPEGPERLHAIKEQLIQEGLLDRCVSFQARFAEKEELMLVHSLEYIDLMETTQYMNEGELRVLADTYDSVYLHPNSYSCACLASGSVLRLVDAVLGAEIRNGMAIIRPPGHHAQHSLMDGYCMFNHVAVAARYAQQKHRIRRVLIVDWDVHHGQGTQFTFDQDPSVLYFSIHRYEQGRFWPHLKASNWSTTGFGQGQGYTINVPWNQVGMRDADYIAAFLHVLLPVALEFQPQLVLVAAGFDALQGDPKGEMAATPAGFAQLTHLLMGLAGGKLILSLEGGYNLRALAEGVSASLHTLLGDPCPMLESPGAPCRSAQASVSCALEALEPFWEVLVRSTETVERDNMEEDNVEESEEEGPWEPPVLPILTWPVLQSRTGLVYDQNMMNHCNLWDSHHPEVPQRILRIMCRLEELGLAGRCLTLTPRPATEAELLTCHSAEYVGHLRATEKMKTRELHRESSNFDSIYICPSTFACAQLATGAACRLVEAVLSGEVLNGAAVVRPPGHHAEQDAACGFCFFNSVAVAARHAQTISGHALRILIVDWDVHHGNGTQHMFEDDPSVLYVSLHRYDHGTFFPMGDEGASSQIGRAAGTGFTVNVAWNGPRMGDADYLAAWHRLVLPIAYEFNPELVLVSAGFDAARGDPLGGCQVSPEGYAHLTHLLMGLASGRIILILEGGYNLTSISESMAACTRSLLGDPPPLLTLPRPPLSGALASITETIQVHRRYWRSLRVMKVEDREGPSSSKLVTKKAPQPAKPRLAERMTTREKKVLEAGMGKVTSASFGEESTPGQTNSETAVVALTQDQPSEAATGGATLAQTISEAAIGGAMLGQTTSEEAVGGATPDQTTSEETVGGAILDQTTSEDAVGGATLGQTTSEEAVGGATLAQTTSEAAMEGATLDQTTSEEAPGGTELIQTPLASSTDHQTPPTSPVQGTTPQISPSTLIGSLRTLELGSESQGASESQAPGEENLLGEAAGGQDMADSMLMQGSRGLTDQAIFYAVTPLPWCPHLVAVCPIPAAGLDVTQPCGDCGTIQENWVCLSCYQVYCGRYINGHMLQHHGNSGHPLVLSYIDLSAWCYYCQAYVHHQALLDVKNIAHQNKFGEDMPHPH

COc1ccccc1NC(=O)NCc1ccc(C(N)=O)cc1 [Compound 1]
Fold Selective (HDAC1/HDAC6) ([1]; Table 1A): 2

COc1ccccc1NC(=O)N(CCCN(C)C)Cc1ccc(C(=O)NO)cc1 [Compound 5a, 4-((1-(3-(dimethylamino)propyl)-3-(2-methoxyphenyl)ureido)methyl)-N-hydroxybenzamide]
GI50 [2]: 75.3 ± 1.23 µM

COc1ccccc1NC(=O)N(CCCO)Cc1ccc(C(=O)NO)cc1 [Compound 5b]
growth inhibition of B16 melanoma cells (in words) [2]: performed very poorly | GI50 [2]: > 100 µM

COc1ccccc1NC(=O)N(CCc1c[nH]c2ccccc12)Cc1ccc(C(=O)NO)cc1 [Compound 5c, 4-((1-(2-(1H-indol-3-yl)ethyl)-3-(2-methoxyphenyl)ureido)methyl)-N-hydroxybenzamide]
GI50 [2]: 30.4 ± 1.32 µM

COc1ccccc1NC(=O)N(CCc1ccc(O)cc1)Cc1ccc(C(=O)NO)cc1 [Compound 5d, N-hydroxy-4-((1-(4-hydroxyphenethyl)-3-(2-methoxyphenyl)ureido)methyl)-benzamide]
GI50 [2]: 18.4 ± 1.23 µM

COCCCN(Cc1ccc(C(=O)NO)cc1)C(=O)Nc1ccccc1 [Compound 5e, N-hydroxy-4-((1-(3-methoxypropyl)-3-phenylureido)methyl)benzamide]
GI50 [2]: 22.2 ± 1.41 µM

CCCCN(Cc1ccc(C(=O)NO)cc1)C(=O)Nc1ccccc1 [Compound 5g, 4-((1-butyl-3-phenylureido)methyl)-N-hydroxybenzamide]
melanoma antigen expression at the mRNA level [3]: upregulation of melanoma antigens gp100, MART1, TYRP1 and TYRP2 | tumor growth [4]: delayed tumor growth | acetyl α-tubulin levels [5]: dose-dependant increase | histone H3 acetylation ([5]; increase only at 1 and 10 μM): without a concamanent elevation | acetylation of α-tubulin and histone [6]: increase acetyl-tubulin without modifying the acetylation status of Histone 3 | less potent than LBH589 in inducing murine B16 melanoma cell death [2]: approximately 100 fold | growth inhibition of B16 melanoma cells (in words) [2]: capable of inhibiting the growth

O=C(NO)c1ccc(CN(CCc2ccccc2)C(=O)Nc2ccccc2)cc1 [Compound 5h, N-hydroxy-4-((1-phenethyl-3-phenylureido)methyl)benzamide]
growth inhibition of B16 melanoma cells (in words) [2]: capable of inhibiting the growth | GI50 [2]: 15.4 ± 1.2 µM

CCCCN(C(=O)NCc1ccc(C(=O)NO)cc1)c1ccccc1 [Compound 8a, 4-((3-butyl-3-phenylureido)methyl)-N-hydroxybenzamide]
GI50 [2]: 65.8 ± 1.19 µM

COCCCN(C(=O)NCc1ccc(C(=O)NO)cc1)c1ccccc1 [Compound 8b, N-hydroxy-4-((3-(3-methoxypropyl)-3-phenylureido)methyl)benzamide]
GI50 [2]: > 100 µM

CCN(C(=O)NCc1ccc(C(=O)NO)cc1)c1ccccc1 [Compound 8c, 4-((3-ethyl-3-phenylureido)methyl)-N-hydroxybenzamide]
GI50 [2]: > 100 µM

COc1ccccc1N1C(=O)N(Cc2ccc(C(=O)NO)cc2)C(C)(C)C1=O [Compound 10a]
Fold Selective (HDAC1/HDAC6) ([1]; Table 2, cyclic urea compounds): 386

CC(C)[C@@H]1C(=O)N(c2ccccc2)C(=O)N1Cc1ccc(C(=O)NO)cc1 [Compound 10b]
Fold Selective (HDAC1/HDAC6) ([1]; Table 2, cyclic urea compounds): 531

O=C(NO)c1ccc(CN2C(=O)N[C@@H](Cc3ccccc3)C2=O)cc1 [Compound 11a]
Fold Selective (HDAC1/HDAC6) ([1]; Table 2, cyclic urea compounds): 295

CCCCN(Cc1ccc(C(=O)NO)cc1)C(=O)Nc1ncccn1 [JB6-22, 4-((1-butyl-3-(pyrimidin-2-yl)ureido)methyl)-N-hydroxybenzamide]
cell proliferation / viability [7]: decrease cell proliferation | IL-10 production [8]: inhibit IL-10 production | IL-10 production [9]: inhibit IL-10 production | cell proliferation / viability [10]: decrease cell proliferation | cell proliferation / viability [11]: decrease cell proliferation | cell proliferation / viability [12]: decrease cell proliferation | acetylation of α-tubulin and histone [6]: increase acetyl-tubulin without modifying the acetylation status of Histone 3

CCCCN(Cc1ccc(C(=O)NO)cc1)C(=O)Nc1ccc2cn[nH]c2c1 [JB7-19, 4-((1-butyl-3-(1H-indazol-6-yl)ureido)methyl)-N-hydroxybenzamide]
cell proliferation / viability [7]: decrease cell proliferation | IL-10 production [8]: inhibit IL-10 production | IL-10 production [9]: inhibit IL-10 production | cell proliferation / viability [10]: decrease cell proliferation | cell proliferation / viability [11]: decrease cell proliferation | cell proliferation / viability [12]: decrease cell proliferation | acetylation of α-tubulin and histone [6]: increase acetyl-tubulin without modifying the acetylation status of Histone 3

Cc1[nH]c2ccccc2c1CCNCc1ccc(/C=C/C(=O)NO)cc1 [LBH589, reference compound]
IC50 ([13]; read-out: IC50 range, inhibition of proliferation): 0.01 to 0.05 µM | GI50 [2]: 0.15 µM

Trichostatin A [TSA]
concentration range inhibiting proliferation (in words) [13]: low 100 nM range
